Measured values from article PMC10515640, “Structure-Based Optimization of Covalent, Small-Molecule Stabilizers of the 14-3-3σ/ERα Protein–Protein Interaction from Nonselective Fragments” (Journal of the American Chemical Society, 2023).

Columns and labels:
14-3-3σ/ERα [1] = target: T1, 14-3-3σ/ERα (Homo sapiens, UniProt P03372+P31947); experiment: Mass spectrometry dose response, compound binding to 14-3-3σ in the presence of ERα phosphopeptide; conditions: 100 nM compound, 100 nM 14-3-3σ, ERα-peptide 2 µM
T1 construct: The 14-3-3 σ isoform (full-length for mass spectrometry and fluorescence anisotropy assays, ΔC for crystallography); made in house; host or cells: E. coli Rosetta 2(DE3)pLysS, pPROEX HTb vector
In short: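 Covalent labeling of Cys38 on 14-3-3σ was tracked by LC-MS on a Waters Acquity UPLC/Xevo G2-XS Q-Tof, with samples desalted on a Protein BEH-C4 column. Full-length wild type 14-3-3σ (100 nM) plus ERα phosphopeptide was mixed with compound in 10 mM TRIS, pH 8.0, at 50 μl per well. Percent bound was measured at several time points.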

14-3-3σ/ERα [2] = target: T1, 14-3-3σ/ERα; experiment: Fluorescence anisotropy protein titration, FAM-labeled ERα peptide; format: binding; conditions: 10 nM FAM-ERα peptide; for X Fold stabilization (100 µM compound) of 14-3-3σ/ERα: versus DMSO reference; for Kd: 100 µM compound, overnight incubation
Description: To evaluate compound-mediated stabilization of the 14-3-3σ/ERα complex directly, FA protein titrations were performed at a saturating concentration of compound. FA protein titrations allowed the quantification of the cooperative effect by comparing the apparent dissociation constants (appKD) of the binary and ternary complexes. 14-3-3σ was titrated into 10 nM FAM-labeled ERα peptide in the presence of DMSO or 100 μM of the compounds (Table S4). […]
diluted in buffer (10 mM HEPES, pH 7.5, 150 mM NaCl, 0.1% Tween20, 1 mg/mL Bovine Serum Albumin (BSA; Sigma-Aldrich). Final DMSO in the assay was always 1%. […]
Protein titrations were made by titrating 14-3-3σ in a 2-fold dilution series (starting at 300 µM) to a mix of fluorescein-labeled peptide (10 nM) and DMSO or compound (100 µM). Fluorescence anisotropy measurements were performed after overnight incubation at room temperature. […]
Wells containing only FAM-peptide were used to set as G-factor at 35 mP. Data reported are at endpoint. EC50 and apparent Kd values were obtained from fitting the data with a four-parameter logistic model (4PL) in GraphPad Prism 7 for Windows. Data was obtained and averaged based on either three (compound titrations) or two (protein titrations) independent experiments.

14-3-3σ/ERα [3] = target: T1, 14-3-3σ/ERα; experiment: Fluorescence anisotropy compound titration, FAM-labeled ERα peptide; format: binding; conditions: 10 nM ERα-FAM labeled peptide, 1 µM 14-3-3σ, overnight incubation (24 h); read-out: EC50 value ERα (FA compound titration)
In short: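 Fluorescence anisotropy compound titration measuring stabilization of the 14-3-3σ/ERα interaction: compounds were titrated in a 2-fold dilution series (starting at 500 or 1000 µM) into a mix of 10 nM fluorescein-labeled ERα peptide and 1 µM 14-3-3σ (about EC25 of the complex) in HEPES buffer with 1% DMSO, read after overnight incubation at room temperature; EC50 from 4PL fitting.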

14-3-3σ = target: T2, 14-3-3σ (Homo sapiens, UniProt P31947); experiment: Mass spectrometry dose response, compound binding to 14-3-3σ in the absence of peptide (apo); conditions: 100 nM compound, 100 nM 14-3-3σ
T2 construct: The 14-3-3 σ isoform (full-length for mass spectrometry and fluorescence anisotropy assays, ΔC for crystallography); made in house; host or cells: E. coli Rosetta 2(DE3)pLysS, pPROEX HTb vector
T2 sequence (P31947 1-248): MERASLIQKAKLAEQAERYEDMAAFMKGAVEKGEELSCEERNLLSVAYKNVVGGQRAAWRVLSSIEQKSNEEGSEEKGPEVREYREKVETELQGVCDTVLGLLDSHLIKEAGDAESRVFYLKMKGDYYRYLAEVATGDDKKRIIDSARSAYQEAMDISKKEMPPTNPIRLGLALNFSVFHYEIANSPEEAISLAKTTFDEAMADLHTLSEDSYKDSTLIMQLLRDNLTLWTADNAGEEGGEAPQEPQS
In short: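 Covalent binding of compounds to Cys38 of full-length wild type human 14-3-3σ (100 nM) was measured by LC-MS without peptide present. Compounds from 50 mM DMSO stocks were serially diluted 3-fold and 1000 nl transferred to plates in TRIS buffer (10 mM, pH 8.0), 50 μl per well. Samples were desalted on a BEH-C4 column and analysed on a Xevo G2-XS Q-Tof at several time points.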

14-3-3σ/C-RAF [4] = target: T3, 14-3-3σ/C-RAF (Homo sapiens, UniProt P31947); experiment: Fluorescence anisotropy compound titration, FAM-labeled C-RAF peptide; format: binding; conditions: 10 nM C-RAF-FAM labeled peptide, 5 µM 14-3-3σ, overnight incubation; read-out: EC50 value C-RAF (FA compound titration)
T3 construct: The 14-3-3 σ isoform (full-length for mass spectrometry and fluorescence anisotropy assays, ΔC for crystallography); made in house; host or cells: E. coli Rosetta 2(DE3)pLysS, pPROEX HTb vector
T3 sequence (P31947 1-248): T2 sequence (P31947 1-248)
In short: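 A fluorescence anisotropy compound titration measured how compounds stabilize binding of 14-3-3σ to a fluorescein-labeled C-RAF peptide. Compounds were diluted 2-fold, from 500 or 1000 µM, into 10 nM labeled peptide with 5 µM 14-3-3σ, roughly its EC25, in HEPES buffer with 1% DMSO. Plates were read after overnight incubation at room temperature. EC50 values came from 4PL fits over three independent experiments.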

14-3-3σ/C-RAF [5] = target: T3, 14-3-3σ/C-RAF; experiment: Mass spectrometry dose response, compound binding to 14-3-3σ in the presence of C-RAF phosphopeptide; conditions: 100 nM compound, 100 nM 14-3-3σ, C-RAF peptide 18 µM
In short: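 Covalent binding of compounds to the native Cys38 of 14-3-3σ was monitored by LC-MS on a Waters Acquity UPLC/Xevo G2-XS Q-Tof, with samples desalted on a BEH-C4 column. Full-length wild type 14-3-3σ (100 nM) with C-RAF peptide in TRIS buffer (10 mM, pH 8.0) was incubated with compound dose series at room temperature.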

SMILES	Percentage (%) bound of compound to 14-3-3σ, ERα 1h (14-3-3σ/ERα [1])	Percentage (%) bound of compound to 14-3-3σ, ERα 8h (14-3-3σ/ERα [1])	Percentage (%) bound of compound to 14-3-3σ, ERα 16h (14-3-3σ/ERα [1])	Percentage (%) bound of compound to 14-3-3σ, ERα 24h (14-3-3σ/ERα [1])	X Fold stabilization (100 µM compound) of 14-3-3σ/ERα (14-3-3σ/ERα [2])	Kd (14-3-3σ/ERα [2])	EC50 (14-3-3σ/ERα [3])	Percentage (%) bound of compound to 14-3-3σ, APO 1h (14-3-3σ)	Percentage (%) bound of compound to 14-3-3σ, APO 8h (14-3-3σ)	Percentage (%) bound of compound to 14-3-3σ, APO 16h (14-3-3σ)	Percentage (%) bound of compound to 14-3-3σ, APO 24h (14-3-3σ)	EC50 (14-3-3σ/C-RAF [4])	Percentage (%) bound of compound to 14-3-3σ, CRAF 1h (14-3-3σ/C-RAF [5])	Percentage (%) bound of compound to 14-3-3σ, CRAF 8h (14-3-3σ/C-RAF [5])	Percentage (%) bound of compound to 14-3-3σ, CRAF 24h (14-3-3σ/C-RAF [5]; 24h)	Percentage (%) bound of compound to 14-3-3σ, CRAF 24h (14-3-3σ/C-RAF [5]; head prints 24h)
O=C(CCl)NCC1CCN(C(=O)C2(Nc3ccc(Cl)cc3)CCOCC2)CC1 [compound 127]	9.5%	19.6%	56.8%	85.2%	19 fold	77 nM	2000 ± 300 nM	0%	0%	1.0%	2.0%	> 150000 nM	1.1%	2.9%	10.5%	7.4%
O=C(CCl)NCCCC1CCN(C(=O)C2(Nc3ccc(Cl)cc3)CCOCC2)CC1 [compound 149]	7.6%	16.2%	37.7%	86.7%	55 fold	27 nM	4000 ± 400 nM	0.6%	0.8%	14.2%	17.7%	–	0%	1.0%	23.3%	3.4%
O=C(CCl)N1CCC2(CC1)CC(NC(=O)C1(Nc3ccc(Cl)cc3)CCOCC1)C2 [compound 163]	42.3%	80.4%	96.6%	99.8%	18 fold	77 nM	4000 ± 1000 nM	5.6%	11.2%	22.6%	40.5%	57000 ± 5000 nM	6.0%	13.4%	49.6%	27.1%
